Source: US10910085B2, “Methods of making polypeptides with non-standard amino acids using genomically recoded organisms” (President and Fellows of Harvard College, priority 2014, dated 2021)

Tests used:
[1] = test system: genomically recoded organism (GRO); test: titration of optimal NSAA concentration by GFP_UAG fluorescence assay (FL/ODmax); assay type: cell-based, E. coli; conditions: GRO bearing synthetase/tRNA and GFP_UAG reporter plasmids; NSAA range 10 uM to 10 mM
Description: First, genomically recoded organisms (“GRO”) as described above were cultured in triplicate in LB-Lennox broth, across a dilution series from 1 uM to 10 mM (incl. 0 uM) NSAA in a 96-well plate. GRO growth (OD600) was kinetically monitored to quantify growth rates and reductions were measured as time to OD600=0.4 and Vmax (dODmax/dt). These experiments helped define the sub-toxic concentration range of an NSAA of interest. Second, the GRO strain was transformed with an L-arabinose-inducible plasmid bearing the synthetase/tRNA that are specific for the NSAA side chain reactivity being evaluated. See Lajoie, M. J. et al. Genomically recoded organisms expand biological functions. […] Only GROs will read these codons as sense codons, not terminate the GFP_UAG translation, and generate NSAA-containing GFP that fluoresces. Patent translation of GFP_UAG (e.g., fluorescence) requires culture in NSAA and transformation with a plasmid bearing the proper synthetase/tRNA pair to use that NSAA. In this way, GFP fluorescence can be a quantitative metric for NSAA-containing protein translation. […] Due to auto-fluorescence of LB-Lennox media, the cells were washed twice in phosphate-buffered saline (pH 7.2) by centrifugation at 4,000×g for 5 minutes. […] GFP translation was normalized by OD600 as fluorescence divided by OD600 when measured (FL/OD), and optimal concentration of NSAA was FL/ODmax.

[2] = test system: genomically recoded organism (GRO); assay type: cell-based, E. coli; conditions: pAzF held constant at 1 mM; for reductions in FL/OD (GFP fluorescence divided by OD600): alkyne containing compound varied from 10 uM-10 mM, GRO culture; for reductions in OD consistent with reaction with pAzF: canonical amino acid controls
Text: To meet the third criteria, NSAA expression using previously evolved amino acyl synthetase/tRNA pairs was used. Synthetases charge a cognate amino acid substrate onto the cognate tRNA pair. An amino acid, a synthetase, and a tRNA form a triad that is required to make that amino acid competent for translation and addition to the nascent polypeptide chain. Amino acid/synthetase/tRNA triads are generally specific thereby preserving the fidelity of the translation of genetic code into proteins. As such, new synthetase/tRNA pairs that function specifically with each other are generated and used to add new NSAAs to the genetic code (or to evaluate the bio-orthogonality of bond-forming NSAA candidates). Alternatively, known synthetase/tRNA pairs are used to evaluate the bio-orthgonality of bond-forming NSAA candidate pairs.
First, genomically recoded organisms (“GRO”) as described above were cultured in triplicate in LB-Lennox broth, across a dilution series from 1 uM to 10 mM (incl. 0 uM) NSAA in a 96-well plate. GRO growth (OD600) was kinetically monitored to quantify growth rates and reductions were measured as time to OD600=0.4 and Vmax (dODmax/dt). These experiments helped define the sub-toxic concentration range of an NSAA of interest. Second, the GRO strain was transformed with an L-arabinose-inducible plasmid bearing the synthetase/tRNA that are specific for the NSAA side chain reactivity being evaluated. See Lajoie, M. J. et al. Genomically recoded organisms expand biological functions. Science 342, 357-360, doi:10.1126/science.1241459 (2013) hereby incorporated by reference in its entirety. […] Only GROs will read these codons as sense codons, not terminate the GFP_UAG translation, and generate NSAA-containing GFP that fluoresces. Patent translation of GFP_UAG (e.g., fluorescence) requires culture in NSAA and transformation with a plasmid bearing the proper synthetase/tRNA pair to use that NSAA. In this way, GFP fluorescence can be a quantitative metric for NSAA-containing protein translation. […] Due to auto-fluorescence of LB-Lennox media, the cells were washed twice in phosphate-buffered saline (pH 7.2) by centrifugation at 4,000×g for 5 minutes. After the second wash, the cells were resuspended in 150 uL PBS for measurement of growth (OD600) and GFP fluorescence (excitation 388 nm, emission 510 nm) using a Biotek Synergy H1/H4 or a Molecular Devices M5 Spectrophotometer. GFP translation was normalized by OD600 as fluorescence divided by OD600 when measured (FL/OD), and optimal concentration of NSAA was FL/ODmax.
Once optimal NSAA concentration was determined, a candidate NSAA is tested to determine whether it impairs translation of the other cognate pair. […] After culture and washing as above, FL/OD was measured and plotted as a function of the NSAA being varied. […]

SMILES	reductions in FL/OD (GFP fluorescence divided by OD600) [2]	reductions in OD consistent with reaction with pAzF [2]	also measured
[N-]=[N+]=Nc1ccc(C[C@H](N)C(=O)O)cc1 [pAzF, para-azido-phenylalanine]	–	–	optimal concentration of NSAA (FL/ODmax) [1]: 1 mM
C#CCONCC(=O)O [pPrG, propargyl-oxyglycine]	no reductions in FL/OD	–	–
N[C@@H](CO)C(=O)O [serine]	–	do not show any reductions in OD	–
N[C@@H](Cc1ccc(O)cc1)C(=O)O [tyrosine]	–	do not show any reductions in OD	–
C1#CCCCCCC1 [unsubstituted cyclo-octynes]	no reductions in FL/OD	–	–
